The text below walks through data of patent publication US20150017380A1, “ABSORBENT FOOD PAD HAVING DISCRETE AIRFLOW PASSAGES” (Paper-Pak Industries, priority 2013, published 2015).

The nature of this data set: SO2 generation of Na2S2O5 in an open environment. Format: physicochemical. How it is done:
FIG. 6A and FIG. 6B show the results of a test that was performed to establish how Na2S2O5 reacts with the environment, and the effect of changes in relative humidity. 0.1 g of Na2S2O5 on sampling “boats” were placed on top of a counter; i.e., in an “open” environment. The concentration of SO2 gas (in parts per million, ppm) in the air at about 2.5 cm (about 1″) above the Na2S2O5 was measured daily for more than 50 days of testing. The relative humidity was also measured for each day of testing.

For the compound `O=S([O-])S(=O)(=O)[O-].[Na+].[Na+]` [Na2S2O5, sodium metabisulfite], the “average SO2 concentration generated” value (0.1 grams of Na2S2O5, open environment, air about 2.5 cm above the sample, up to 50 days) is listed as 0.5 ppm. Further, the “duration of continuous SO2 generation” value (conclusion from the several tests) is recorded as “more than 50 days”.
